Experimental data reported in patent publication US10414763B2 (CANCER RESEARCH TECHNOLOGY LIMITED, priority 2014, dated 2019).

molecular target: T1, full-length human PKCι (Homo sapiens, UniProt P41743); test: PKCι IC50 IMAP fluorescence polarisation assay, full-length enzyme, 150 μM ATP; type: biochemical; details: read-out: IC50 in IMAP assay against full length PKCi at 150 μM ATP
T1 construct: Recombinant, full-length human PKCι expressed in Sf21 insect cells is also commercially available; purchased EMD Millipore; host or cells: Sf21 insect cells (baculovirus)
T1 sequence (P41743 1-596): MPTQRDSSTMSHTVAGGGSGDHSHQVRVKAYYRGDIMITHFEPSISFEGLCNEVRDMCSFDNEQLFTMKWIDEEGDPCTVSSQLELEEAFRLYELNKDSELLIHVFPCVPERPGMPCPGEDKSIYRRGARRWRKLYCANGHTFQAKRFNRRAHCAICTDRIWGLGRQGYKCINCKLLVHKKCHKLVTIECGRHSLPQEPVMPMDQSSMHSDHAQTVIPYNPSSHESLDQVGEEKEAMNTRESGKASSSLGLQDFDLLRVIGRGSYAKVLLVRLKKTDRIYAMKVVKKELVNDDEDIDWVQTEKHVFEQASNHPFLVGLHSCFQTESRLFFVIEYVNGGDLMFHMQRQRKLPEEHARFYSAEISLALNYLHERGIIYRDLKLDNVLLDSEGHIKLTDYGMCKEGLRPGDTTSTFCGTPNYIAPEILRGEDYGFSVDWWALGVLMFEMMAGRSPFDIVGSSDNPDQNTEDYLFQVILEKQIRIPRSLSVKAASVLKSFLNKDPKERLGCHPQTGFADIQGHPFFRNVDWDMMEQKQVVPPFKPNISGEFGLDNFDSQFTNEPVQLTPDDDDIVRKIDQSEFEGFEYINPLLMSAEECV
Source text: Assays are based on the ability of PKCι to phosphorylate a commercially available peptide substrate in vitro. The peptide substrate is FAM-PKCε pseudopeptide derived peptide, and comprises the amino acid sequence 5FAM-ERMRPRKRQGSVRRRV-NH2. Recombinant, full-length human PKCι expressed in Sf21 insect cells is also commercially available. Recombinant, kinase-domain human PKCι is expressed and purified in-house.
The procedure below explains how dose response curves for inhibitors of PKCι are obtained. The screen described is for a 384 well format but the assay can be adapted to 1536 or other formats as required.
Compounds to be tested are dissolved in 100% DMSO. Compounds are diluted as required to give a final concentration of 4% DMSO (v/v) in the assay. 1 μl is plated into 384 well black low-binding flat bottomed assay plates which are used immediately. Dilutions and additions of compound to assay plates are carried out using Matrix WellMate® and Matrix PlateMate® Plus liquid handling systems.
On the day of the screen PKCι/substrate working solution, and ATP working solution, are prepared in buffer containing 20 mM tris-HCl pH7.5, 10 mM MgCl2, 0.01% Triton X100, 250 μM EGTA and 1 mM DTT. The final concentration of PKCι used varies depending on the batch of protein but is typically 15 pM. The final concentration of peptide substrate in the assay is 100 nM. ATP is used at a final concentration of 150 μM or 25 μM in the assays containing full-length or kinase-domain PKCι respectively, which corresponds to five times or equal to the KM^APP for ATP for each enzyme, respectively. The final buffer concentration in the assay is 18 mM tris-HCl pH7.5, 9 mM MgCl2, 0.009% Triton X100, 225 μM EGTA and 0.9 mM DTT. Relevant controls are included, namely no compound and no enzyme. 5 μl PKCι/substrate working solution at 30 pM and 200 nM, respectively, is added to the wells, followed by 4 μl ATP working solution at 375 μM or 62.5 μM for full-length or kinase-domain PKCι respectively, using a 16 channel Matrix pipette. The reaction is allowed to incubate for 60 minutes at room temperature, before the reaction is stopped and developed by the addition of 20 μl IMAP™ development reagent (Molecular Devices). IMAP development reagent consists of 0.25% (v/v) IMAP progressive binding reagent, 17% (v/v) IMAP progressive binding buffer A and 3% (v/v) IMAP progressive binding buffer B. The plates are then incubated for 2 hours at room temperature before being read using an appropriate plate reader, for example a Molecular Devices HT Analyst or a BMG Pherastar. Plates are read using a fluorescence polarisation protocol with excitation at 485 nm and emission at 530 nm, and dichroic mirror at 505 nm.
Percentage inhibition values are calculated from fluorescence polarisation values, using the no compound and no enzyme control values as 0% and 100% inhibition, respectively. IC50 determination is performed with ExcelFit software (IDBS) using curve fit 205. Z′ factors are determined for each plate tested and are all above 0.5.
Alternatively, compounds were tested for their ability to inhibit the kinase activity of recombinant human baculovirus-expressed PKCiota using the immobilized metal-ion affinity particle (IMAP®) fluorescence polarization detection system (Molecular Devices, Sunnyvale, Calif.). PKCiota/IMAP® substrate mixture (2×) was prepared in 1×IMAP assay buffer (Molecular Devices) containing 1 mM DTT so that the final assay concentrations were 15 pM PKCiota (EMD Millipore, Billerica, Mass.) and 100 nM 5-fluorescein-amidite (FAM)-PKC ? -pseudosubstrate (5-FAM-ERMRPRKRQGSVRRRV-NH2) (Molecular Devices). The 2× working solution was added at 5 μL/well into a 384-well black, non-binding, flat bottom assay plate (Corning, Corning, N.Y.). […]

| Structure (SMILES) | IC50 |
| --- | --- |
| O[C@]12CCN(c3nc(-c4ccnc5[nH]c6ccccc6c45)nc4cncc(C5CC5)c34)[C@H]1CCNC2 (racemic) [Example 113, (±)-(3aS,7aS)-1-[5-Cyclopropyl-2-(9H-pyrido[2,3-b]indol-4-yl)-pyrido[3,4-d]pyrimidin-4-yl]-octahydro-pyrrolo [3,2-c]pyridin-3a-ol] | < 100 nM |
| CN(c1nc(-c2ccnc3[nH]c4ccccc4c23)nc2cncc(C3CC3)c12)[C@@H]1CCNC[C@@]1(C)O (racemic) [Example 114, (±)-(3,4-trans)-4-{[5-Cyclopropyl-2-(9H-pyrido[2,3-b]indol-4-yl)-pyrido[3,4-d]pyrimidin-4-yl]-methyl-amino}-3-methyl-piperidin-3-ol] | < 100 nM |
| Cc1cc2c(-c3nc(N4CC[C@]5(O)CNCC[C@H]45)c4c(C5CCC5)cncc4n3)ccnc2[nH]1 (racemic) [Example 117, (±)-(3aS,7aS)-1-[5-Cyclobutyl-2-(2-methyl-1H-pyrrolo[2,3-b]pyridin-4-yl)-pyrido[3,4-d]pyrimidin-4-yl]-octahydro-pyrrolo [3,2-c]pyridin-3a-ol] | < 100 nM |
| O[C@]12CCN(c3nc(-c4ccnc5[nH]c(-c6ccccc6Cl)cc45)nc4cncc(C5CC5)c34)[C@H]1CCNC2 (racemic) [Example 143, (±)-(3aS,7aS)-1-{2-[2-(2-Chloro-phenyl)-1H-pyrrolo[2,3-b]pyridin-4-yl]-5-cyclopropyl-pyrido[3,4-d]pyrimidin-4-yl}-octahydro-pyrrolo [3,2-c]pyridin-3a-ol] | < 100 nM |
| O[C@]12CCN(c3nc(-c4ccnc(Nc5nc6ccccn6n5)c4)nc4cncc(C5CC5)c34)[C@H]1CCNC2 (racemic) [Example 151, (±)-(3aS,7aS)-1-{5-Cyclopropyl-2-[2-([1,2,4]triazolo[1,5-a]pyridin-2-ylamino)-pyridin-4-yl]-pyrido[3,4-d]pyrimidin-4-yl}-octahydro-pyrrolo [3,2-c]pyridin-3a-ol] | < 100 nM |
| N[C@H]1C[C@H](Nc2nc(-c3ccnc4[nH]c5ccccc5c34)nc3cncc(C4CCC4)c23)C[C@H]1F (racemic) [Example 207, (±)-(1S,3S,4S)-N*l*-[5-Cyclobutyl-2-(9H-pyrido[2,3-b]indol-4-yl)-pyrido[3,4-d]pyrimidin-4-yl]-4-fluoro-cyclopentane-1,3-diamine] | 100 to 1000 nM |
| C[C@@H]1CNCC[C@H]1Nc1nc(-c2ccnc(Nc3nc(F)ccc3F)c2)nc2cncc(C3CC3)c12 (racemic) [Example 223, (±)-{5-Cyclopropyl-2-[2-(3,6-difluoro-pyridin-2-ylamino)-pyridin-4-yl]-pyrido[3,4-d]pyrimidin-4-yl}-((3,4-trans)-3-methyl-piperidin-4-yl)-amine] | < 100 nM |
| C[C@@H]1CNCC[C@@H]1Nc1nc(-c2ccnc(Nc3nc(F)ccc3F)c2)nc2cncc(C3CC3)c12 (racemic) [Example 224, (±)-{5-Cyclopropyl-2-[2-(3,6-difluoro-pyridin-2-ylamino)-pyridin-4-yl]-pyrido[3,4-d]pyrimidin-4-yl}-((3,4-cis)-3-methyl-piperidin-4-yl)-amine] | < 100 nM |
| C[C@H]1C[C@@H](Nc2nc(-c3ccnc(Nc4nc(F)ccc4F)c3)nc3cncc(C4CC4)c23)CCN1 (racemic) [Example 225, (±)-{5-Cyclopropyl-2-[2-(3,6-difluoro-pyridin-2-ylamino)-pyridin-4-yl]-pyrido[3,4-d]pyrimidin-4-yl}-((2,4-cis)-2-methyl-piperidin-4-yl)-amine] | < 100 nM |
| C[C@@H]1C[C@@H](Nc2nc(-c3ccnc(Nc4nc(F)ccc4F)c3)nc3cncc(C4CC4)c23)CCN1 (racemic) [Example 226, (±)-{5-Cyclopropyl-2-[2-(3,6-difluoro-pyridin-2-ylamino)-pyridin-4-yl]-pyrido[3,4-d]pyrimidin-4-yl}-((2,4-trans)-2-methyl-piperidin-4-yl)-amine] | 100 to 1000 nM |
| OC1CNCCC(Nc2nc(-c3ccnc4[nH]c5ccccc5c34)nc3cncc(C4CCC4)c23)C1 (racemic) [Example 230, Cis- or trans-(±)-5-[5-Cyclobutyl-2-(9H-pyrido[2,3-b]indol-4-yl)-pyrido[3,4-d]pyrimidin-4-ylamino]-azepan-3-ol] | < 100 nM |
